Results taken from PMC2879362, “Design of Group IIA Secreted/Synovial Phospholipase A2 Inhibitors: An Oxadiazolone Derivative Suppresses Chondrocyte Prostaglandin E2 Secretion” (PLoS ONE, 2010).
“Also recorded” adds a separate entry of the source.

Key:
[1] = tested on: rabbit articular chondrocytes; assay: MTT cell viability of IL-1β-treated articular chondrocytes; type: cell-based; conditions: IL-1β 1 ng/mL 20 h
Procedure: We assessed the viability of the chondrocytes by MTT assay to evaluate the cytotoxic effects of C8 on these cells. Chondrocytes were treated for 20 h with 1 ng/mL IL-1β alone or 1 h after the addition of C8 at 0.31 to 9.92 µM, which corresponded to 0.5- to 5-fold the IC50 of C8 on human GIIAPLA2 activity (Table 2). Three different culture medium compositions were used: DMEM alone, or supplemented with 0.1% BSA or 2% FCS. […] Thus, we evaluated the anti-inflammatory activity of C8 in culture conditions from 0.31 to 1.24 µM in DMEM alone and from 0.31 to 4.96 µM in DMEM supplemented with 0.1% BSA or 2% FCS.
Articular chondrocytes were isolated from 5-week-old Fauve de Bourgogne female rabbits (CPA, Orleans, France) and cultured at the first passage in conditions avoiding cell dedifferentiation as previously described. Cells were cultured at 37°C in 12-well plates in Ham's F-12 medium containing 10% FCS, 20 IU/mL penicillin, and 20 µg/mL streptomycin (all from Invitrogen) until nearly confluent. Then medium was replaced with DMEM (Invitrogen) containing 20 IU/mL penicillin, and 20 µg/mL streptomycin and, if necessary, 0.1% fatty acid free BSA (Sigma) or 2% FCS. At this time the C8 compound dissolved in DMSO (Sigma) was added to the medium (the amount of DMSO was kept at 1‰ (v/v) in all the wells). 1 h after the addition of C8, IL-1β (PeproTech) was added to the medium. Consequently, chondrocytes were incubated for 20 h with IL-1β and for 21 h with C8.
At 18 h after the addition of IL-1β, 3-[4,5-dimethylthiazol-2-yl]-2,5-diphenyl tetrazolium bromide (MTT; Sigma) was added to the cell culture medium at 0.5 mg/mL. Cells were incubated 2 more hours at 37°C. The medium was then removed, and DMSO was added to dissolve the formazan crystals. The absorbance of the resulting solution was spectrophotometrically measured at 570 and 690 nm (background). The value corresponding to absorbance570nm - absorbance690nm was directly proportional to the number and activity of the viable cells.

[2] = tested on: COX-1/COX-2 protein ratio; assay: COX-1/COX-2 protein ratio by scanning densitometry of western blots; type: cell-based, rabbit; conditions: C8 0.31-1.24 µM in DMEM, IL-1β 20 h
Source text: As expected, COX-1 protein was detectable but COX-2 and iNOS proteins were undetectable in untreated control conditions (Fig. 6A). […] Consequently, the protein ratio of COX-1 to COX-2 was not modified by C8 (Fig. 6B). […] Results from one representative experiment in five are shown. (B) Intensities of the COX-1 and COX-2 immunoreactive bands evaluated by semi-quantitative scanning densitometry. Data represent the COX-1/COX-2 protein ratio and are expressed as relative arbitrary units, where the IL-1β-treated group represents 1. Values are means ± SEM (n = 5 independent determinations). No significant differences were found between the groups. […] Cell lysates were centrifuged for 15 min at 14000 rpm at 4°C and supernatants were collected. Protein concentrations were determined by the Bradford method by use of the Protein Assay dye reagent (Bio-Rad). Protein extracts (20 µg) were size-separated by SDS-PAGE in a 10% (w/v) polyacrylamide gel and electroblotted to a nitrocellulose membrane. Equal protein loading and transfer was confirmed by staining the membrane with Ponceau Red [0.2% (w/v) in H2O:acetic acid 99∶1]. […] Immunocomplexes were detected by an enhanced chemiluminescence kit (Amersham Bioscience). […] Semi-quantitative scanning densitometry involved use of the ImageJ program (NIH, USA).

COX-2 = assay: Western blot of COX-2 protein level in IL-1β-treated chondrocytes; type: cell-based, rabbit; conditions: C8 0.31-1.24 µM in DMEM, IL-1β 20 h
Procedure: As expected, COX-1 protein was detectable but COX-2 and iNOS proteins were undetectable in untreated control conditions (Fig. 6A). […] Consequently, the protein ratio of COX-1 to COX-2 was not modified by C8 (Fig. 6B). […] Cell lysates were centrifuged for 15 min at 14000 rpm at 4°C and supernatants were collected. Protein concentrations were determined by the Bradford method by use of the Protein Assay dye reagent (Bio-Rad). Protein extracts (20 µg) were size-separated by SDS-PAGE in a 10% (w/v) polyacrylamide gel and electroblotted to a nitrocellulose membrane. Equal protein loading and transfer was confirmed by staining the membrane with Ponceau Red [0.2% (w/v) in H2O:acetic acid 99∶1]. The membrane was sequentially incubated with antibodies against COX-1 (1∶200, Santa Cruz Biotechnology), COX-2 (1∶500, Santa Cruz Biotechnology), iNOS (1∶400, BD Biosciences) or α-tubulin (1∶100, Santa Cruz Biotechnology) and then with peroxidase-conjugated donkey anti-goat IgG (1∶20000) or donkey anti-rabbit IgG (1∶200, both Santa Cruz Biotechnology). Immunocomplexes were detected by an enhanced chemiluminescence kit (Amersham Bioscience). The membrane was stripped by incubation in 0.2 M NaOH between successive immunodetections. Semi-quantitative scanning densitometry involved use of the ImageJ program (NIH, USA).

SMILES: O=c1[nH]c(Cc2ccc(OCCCCCOc3cc4ccccc4c4ccccc34)cc2)no1 [C8]
- cytotoxic effects (MTT) ([1]; DMEM alone, C8 at 0.31 to 2.48 µM): no cytotoxic effects
- cytotoxic effects (MTT) ([1]; DMEM with 0.1% BSA, C8 at 0.31 to 9.92 µM): no cytotoxic effects; also recorded: did not decrease cell viability
- cytotoxic effects (MTT) ([1]; DMEM with 2% FCS, C8 at 0.31 to 9.92 µM): no cytotoxic effects; also recorded: did not decrease cell viability
- effect on protein ratio of COX-1 to COX-2 [2]: not modified
- effect on COX-2 protein level (COX-2): did not alter
